Patent publication US20240201205A1, “METHOD FOR DETECTING NEUROLOGICAL DISEASES USING SUPRAMOLECULE POLYMER THERAPEUTICS” (The Regents of the University of California, priority 2022, published 2024)

What was measured:
[1] = target: T1, α-synuclein fibrils isolated from an MSA patient sample (Homo sapiens, UniProt P37840); assay: Cryo-EM co-structures of compounds with α-synuclein fibrils from MSA patient; assay type: binding; settings: for binding to α-synuclein fibrils (cryo-EM co-structure): fibrils from MSA patient sample, 20 μM ligand
T1 construct: fresh-frozen tissue from the cerebellum of patients clinically and neuropathologically diagnosed with MSA; from tissue; host or cells: cerebellum of MSA patients (sarkosyl-insoluble filament preparation)
Procedure: MSA filament purification. Filament purification was based on Schweigenhauser et al., 2020^2. Briefly, 1-2 g of fresh-frozen tissue from the cerebellum of patients clinically and neuropathologically diagnosed with MSA was homogenized at 20 mL/g of tissue in 10 mM Tris-HCl (pH 7.4), 800 mM NaCl, 1 mM EGTA, and 10% sucrose. A final concentration of 1% N-laurosarcosinate (w/v) was added to the homogenates, and these mixtures were incubated at 37° C. for 30 minutes. Homogenates were then centrifuged at 10,000 g for 10 minutes, and the supernatant was kept and then centrifuged at 100,000 g for 20 minutes. The pellets were resuspended at 500 μL/g of frozen tissue in 10 mM Tris-HCl (pH 7.4), 800 mM NaCl, 1 mM EGTA, and 10% sucrose. This was followed by another centrifugation at 3,000 g for 5 minutes. The supernatant was kept and diluted threefold with 50 mM Tris-HCl (pH 7.4), 150 mM NaCl, 10% sucrose, and 2% sarkosyl, followed by another centrifugation at 150,000 g for 1 hour. The final pellet resuspended in 30 mM Tris-HCl (pH 7.4) at a concentration of 100 μL/g frozen tissue.
Cryo-EM sample preparation and data collection. Purified frontal cortex and cerebellum tissue was incubated with 20 μM ligand for 45 minutes prior to freezing. For the tau PHF, 3 μL of purified filaments mixed with GTP-1 was added to a glow-discharged 200 mesh 1.2/1.3R Au Quantifoil grid for 10 seconds before blotting for 2 seconds, and then a second 3 μL aliquot was added for 3 seconds and blotted for 1 second before being plunge frozen in liquid ethane using a FEI Vitrobot Mark IV (Thermo Fisher Scientific). For the synuclein ligands, 3 μL of purified filaments mixed with compound was added to a 200 mesh 1.2/1.3R Au Quantifoil grid coated with a 2 nm thick layer of carbon, which had not been glow discharged. After 30 seconds, grids were blotted for 7.5 seconds at room temperature and 100% humidity. Grids were plunge frozen in liquid ethane using a FEI Vitrobot Mark IV. […] A defocus range of 0.8 to 1.8 μm was used with a total exposure time of 2.024 seconds fractionated into 0.025 seconds subframes. The total dose for each movie was 46 electrons/Å^2. Movies were motion-corrected using MotionCor2^3 in Scipion^4 and were Fourier cropped by a factor of 2 to a final pixel size of 0.834 Å per pixel.
Image processing. All image processing was done in RELION 4^5, and the same workflow was used for each dataset. Dose-weighted summed micrographs were imported into RELION 4. The contrast transfer function was estimated using CTFFIND-4.1^6. Filaments were manually picked and then segments were extracted with a box size of 900 pixels downscaled to 300 pixels. Contaminants and segments contributing to straight filaments were separated out using reference-free 2D class averaging. The remaining segments were re-extracted with a box size of 288 pixels without downscaling. An initial model was generated from a cylinder in RELION. One or more rounds of 3D classification with image alignment were performed, with helical rise and […] parameters fixed to eliminate obvious junk particles. One or more rounds of 3D auto-refinement was run using the best map from 3D classification low-pass filtered to 10 Å, allowing rise and twist parameters to vary. Maps were sharpened using the standard post-processing procedures in RELION.
Model building, refinement, and analysis. Prior to ligand placement, a single strand of a previously solved MSA or tau PHF filament structure^2 (PDB: 6XYQ) was refined against the density using Phenix^7. Refinement of the ligand binding pocket was done in COOT^8. Ligands were placed by hand in the density using Chimera^9. This model was then translated to give a stack spanning 5 rungs.

[2] = target: T2, YFP-tagged full length 0N4R-Tau carrying a P301S mutation (T24 cells) (Homo sapiens, UniProt P10636, P618S); assay: Tau-AD high throughput screening (counter screen); assay type: cell-based; settings: final test concentration of 10 μM; T24 cells transfected with 416-AD11A lysate; 72 h; control is DMSO
T2 construct: C-terminally YFP-tagged full length 0N4R-Tau carrying a P301S mutation (T24 cells); expressed in transfected cells
T2 sequence (P10636 1-383 isoform P10636-6 P243S): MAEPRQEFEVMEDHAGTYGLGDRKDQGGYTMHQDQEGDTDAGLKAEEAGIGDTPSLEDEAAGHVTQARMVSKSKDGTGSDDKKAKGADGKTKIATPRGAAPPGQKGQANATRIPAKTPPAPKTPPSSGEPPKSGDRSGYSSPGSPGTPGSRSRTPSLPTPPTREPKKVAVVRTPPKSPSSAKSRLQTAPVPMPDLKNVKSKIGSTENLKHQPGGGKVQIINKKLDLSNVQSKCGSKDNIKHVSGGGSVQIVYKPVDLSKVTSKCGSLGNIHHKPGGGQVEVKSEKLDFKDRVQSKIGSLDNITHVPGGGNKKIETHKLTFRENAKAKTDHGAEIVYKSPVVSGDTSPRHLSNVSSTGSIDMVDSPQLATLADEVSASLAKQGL
Procedure: A fragment of the Middle Tempral Gyrus (MTG) from Alzheimer's Disease (AD) patient 2217 was resuspended in 9 volumes of PBS (ml/g of brain) and homogenized 3×12 seconds using a probe homogenizer (Thomas Scientific) with disposable Omni Tip plastic homogenizing probes (Thomas Scientific Cat No 3409Y77) to generate a 10% brain homogenate (10% AD11-BH). The 10% AD11-BH was clarified of insoluble debris by centrifugation at 800×g for 5 minutes. The resulting supernatant was collected and the protein concentration of this clarified BH (AD11-CBH) was determined by bicinchoninic acid assay (BCA) (Thermo Fisher Cat No. 23227). HEK293 cells stably expressing a C-terminally Clover-tagged truncated 4R-Tau^243-382 transgene containing the P301L and V337M mutations and a C-terminally Ruby-tagged truncated 3R-Tau^243-382 transgene containing the L266V and V337M mutations (128/139 cells) were transfected with the AD11-CBH using lipofectamine 2000 (LF2K) (Thermo Fisher Cat No. 11668500). Briefly, 0.32 μl of LF2K were diluted in 5 μl Opti-MEM (Thermo Scientific Cat No 31985070) per well of a 384-well plate and incubated for 5 min at room temperature (RT). This mixture was added to 0.32 μg of AD11-CBH diluted in 5 μl of PBS per well of a 384-well plate and vortex briefly. The transfection mixture was incubated at room temperature for 90 min. The transfection complexes were subsequently added to a single well of a 384-well plate containing 3500 128/139 cells. After 3 days the cells were harvested, counted and plated at a density of 1 cell/well in a 96-well plate. A clonal cell line containing Clover and Ruby positive Tau aggregates was selected and termed 416-AD11A cells. Following the expansion of these 416-AD11A cells, a cell lysate was prepared by freeze/thaw. The cells from a confluent T175 flask were harvested in 1 ml of PBS containing 1× protease inhibitor cocktail by scraping. The cell suspension was subjected to 4 cycles of freezing in liquid nitrogen for 5 minutes followed by thawing at 37° C. for 5 minutes. The resulting cell lysate was centrifuged at 2000 RPM for 10 minutes to remove the cell debris and the protein concentration of the resulting 416-AD11A lysate was determined by BCA assay and aliquots frozen for future use.
HEK293 cells stably expressing C-terminally YFP-tagged full length 0N4R-Tau carrying a P301S mutation (T24 cells) are plated at a density of 4000 cells per well of a 384-well black walled, clear bottom plate (Greiner Cat No 5678-1091Q) in 60 μl of complete DMEM (DMEM (Corning Cat No 10-013-CV), 10% FBS (VWR Cat No 97068-085, 0.5% Penicillin/streptomycin (Gibco Cat No 15140-122)) containing 0.1 μg/ml Hoechst Dye (Thermo Scientific Cat No H3570). Transfection complexes are prepared by diluting 0.15 μg of 416-AD11A lysate or HEK lysate in 5 μl of PBS per well to be transfected and 0.15 μl of Lipofectamine 2000 (LF2K) (ThermoFisher Cat No 11668500) in 5 μl of Opti-MEM per well to be transfected in separate tubes. The pre-diluted 416-AD11A or HEK lysates and LF2K are subsequently mixed and allowed to incubate for 90 minutes at RT. A 10 μl aliquot of the 416-AD11A or HEK transfection complexes is added to the appropriate wells of the 384-well plate containing the T24 cells using the Bravo liquid handling platform (Agilent). Wells A23-P24 of the 384-well plate are transfected with HEK lysate to act as a reference point for spontaneous aggregation of 0N4R^P301S and for transfection related toxicity. The dilution of test compounds is performed using the Bravo liquid handling platform (Agilent). The control is DMSO in the absence of any test compound. Briefly, 1 μl of each test compound (5 mM stock) in the 384-well test plate was transferred to a 384-well plate (Greiner Cat No 781280) containing 61.5 μl of complete DMEM to generate a working stock of compounds at 80 μM. […]

| SMILES | AD Tau Aggregates (% control) [2] [% control] | further results |
| --- | --- | --- |
| CNC(=O)c1ncc2c(-c3ccnc(C(C)(F)F)n3)nn(-c3ccc(Cl)cc3)c2n1 [Compound 22, 1-(4-chlorophenyl)-3-(2-(1,1-difluoroethyl)pyrimidin-4-yl)-N-methyl-1H-pyrazolo[3,4-d]pyrimidine-6-carboxamide] |  | binding site on α-synuclein ([1]; cryo-EM, residues of SEQ ID NO: 9): bound to residues 86-99 of α-synuclein; binding to α-synuclein fibrils (cryo-EM co-structure) [1]: bound to fibrils isolated from an MSA patient sample |
| CNc1nc(=O)n(-c2nc(-c3cccc(C)c3)oc2-c2ccc(Cl)c(F)c2)cc1F [Compound 83, 1-(5-(4-chloro-3-fluorophenyl)-2-(m-tolyl)oxazol-4-yl)-5-fluoro-4-(methylamino)pyrimidin-2(1H)-one] |  | binding to α-synuclein fibrils (cryo-EM co-structure) [1]: bound to fibrils isolated from an MSA patient sample |
| CNc1nc(=O)n(-c2nc(-c3cccc(Cl)c3)oc2-c2ccc(Cl)c(F)c2)cc1F [Compound 125, 1-(5-(4-chloro-3-fluorophenyl)-2-(3-chlorophenyl)oxazol-4-yl)-5-fluoro-4-(methylamino)pyrimidin-2(1H)-one] |  | binding to α-synuclein fibrils (cryo-EM co-structure) [1]: bound to fibrils isolated from an MSA patient sample |
| Cc1cc(-c2nc(-n3cc4ccn(C5CC5)c4nc3=O)c(-c3ccc(F)c(F)c3)o2)ncc1F [Compound 234] | 85 |  |
| Cc1ccnn1-c1nc(-n2cc3ccn(C(F)(F)F)c3nc2=O)c(-c2ccc(F)cc2)o1 [Compound 240] | 95 |  |
| Cc1ccn(-c2nc(-n3cc4ccn(C(F)(F)F)c4nc3=O)c(-c3ccc(F)cc3)o2)n1 [Compound 241] | 98 |  |
| O=c1nc2c(ccn2C(F)(F)F)cn1-c1nc(N2Cc3ccccc3C2)oc1-c1ccc(F)cc1 [Compound 242] | 99 |  |
| CNC(=O)c1ncc2c(-c3ccccc3Cl)nn(-c3ccc(F)cc3)c2n1 [Compound 244] | 100 |  |
| CCc1ccccc1-c1nn(-c2ccc(F)cc2)c2nc(C(=O)NC)ncc12 [Compound 245] | 120 |  |
| CNC(=O)c1ncc2c(-c3ccccc3)nn(-c3ccc(F)cc3)c2n1 [Compound 246] | 120 |  |
| CNC(=O)c1ncc2c(-c3ccccc3)nn(Cc3ccccc3)c2n1 [Compound 248] | 95 |  |
| CNC(=O)c1ncc2c(-c3cc4c(cnn4C)cc3F)nn(Cc3ccccc3)c2n1 [Compound 253] | 96 |  |
| CNC(=O)c1ncc2c(-c3cccc4c3OC(F)(F)O4)nn(Cc3ccccc3)c2n1 [Compound 254] | 100 |  |
| CNC(=O)c1ncc2c(-c3ccc(F)cc3)nn(CC3CCCCC3)c2n1 [Compound 258] | 110 |  |
| CNC(=O)c1ncc2c(-c3ccc(F)cc3)nn(Cc3ccnc(F)c3)c2n1 [Compound 259] | 99 |  |
| CNC(=O)c1ncc2c(-c3ccc(F)cc3)nn(Cc3cccc(F)c3)c2n1 [Compound 260] | 95 |  |
| CNC(=O)c1ncc2c(-c3ccc(F)cc3)nn(Cc3ccc(F)cc3)c2n1 [Compound 261] | 87 |  |
| CC(=O)Nc1ncc2c(-c3ccccc3)nn(C(C)c3ccccc3)c2n1 (stereo not shown) [Compound 265] | 110 |  |
| CC(=O)Nc1ncc2c(-c3ccccc3C)nn(Cc3ccccc3)c2n1 [Compound 266] | 98 |  |
| CC(=O)Nc1ncc2c(-c3ccccc3)nn(Cc3cncc(F)c3)c2n1 [Compound 267] | 91 |  |
| CCC(=O)Nc1ncc2c(-c3ccccc3)nn(Cc3ccc(OC)cc3)c2n1 [Compound 269] | 100 |  |
| COC(=O)Nc1ncc2c(-c3ccccc3)nn(-c3ccccc3)c2n1 [Compound 274] | 94 |  |
| CC(=O)Nc1ncc2c(-c3ccccc3)nn(Cc3ccncc3)c2n1 [Compound 279] | 92 |  |
| CC(=O)Nc1ncc2c(-c3ccccc3)nn(CC3CCCCC3)c2n1 [Compound 280] | 90 |  |
